The record followed here is patent US20090182039A1, “Choline Salt Crystal of Azulene Compound” (priority 2005, published 2009).

Data set [1] is described as follows: Crystal form stability (DSC analysis / X-ray powder diffraction). Format: physicochemical. Conditions: behaviour on heating, drying or at room temperature. As to the method: X-ray powder diffraction and differential scanning calorimeter analysis (DSC analysis) were conducted under the following conditions. “MAC Science […]22” equipped with a copper X-ray tube was used under the conditions of a current of 40 mA, a tube voltage of […], a sampling width of 0.020°, a scanning rate of 3°/min, wavelength of 1.54056 Å, and measurement angles of diffraction range of (2θ): 3 or 5 to 40°. “TA Instrument TA 5000” was used at a temperature from room temperature to 300° C. (10° C./min) and a N2 feed rate of 50 ml/min using an aluminum sampling pan.
In general terms: In DSC, transitions show as peaks or steps in heat flow.

A short description of data set [2]: Storage stability test. Format: physicochemical. Here is the method:
(2-hydroxyethyl)trimethylammonium-4-(azulene-2-ylmethyl)-2-β-D-glucopyranosylphenolate (46 g) was put into a polyethylene bag, and the opening of the bag was closed with a bead band. The bag was put into another polyethylene bag containing silica gel (12 g). The opening of the bag was closed with a bead band. The bag was placed in a metal can, which was tightly sealed and stored in a dark place at 40° C. and 75% RH for six months. Apart from this, (2-hydroxyethyl)trimethylammonium-4-(azulene-2-ylmethyl)-2-β-D-glucopyranosylphenolate (10 g) was put into an open brown container and stored in a dark place at 40° C. and 75% RH for six months.

For data set [3], the target named is T1, Human Na+-glucose cotransporter (human SGLT2) (Homo sapiens, UniProt P31639).
T1 construct: expressed in transfected cells; host or cells: CHO-K1
T1 sequence (P31639 1-672): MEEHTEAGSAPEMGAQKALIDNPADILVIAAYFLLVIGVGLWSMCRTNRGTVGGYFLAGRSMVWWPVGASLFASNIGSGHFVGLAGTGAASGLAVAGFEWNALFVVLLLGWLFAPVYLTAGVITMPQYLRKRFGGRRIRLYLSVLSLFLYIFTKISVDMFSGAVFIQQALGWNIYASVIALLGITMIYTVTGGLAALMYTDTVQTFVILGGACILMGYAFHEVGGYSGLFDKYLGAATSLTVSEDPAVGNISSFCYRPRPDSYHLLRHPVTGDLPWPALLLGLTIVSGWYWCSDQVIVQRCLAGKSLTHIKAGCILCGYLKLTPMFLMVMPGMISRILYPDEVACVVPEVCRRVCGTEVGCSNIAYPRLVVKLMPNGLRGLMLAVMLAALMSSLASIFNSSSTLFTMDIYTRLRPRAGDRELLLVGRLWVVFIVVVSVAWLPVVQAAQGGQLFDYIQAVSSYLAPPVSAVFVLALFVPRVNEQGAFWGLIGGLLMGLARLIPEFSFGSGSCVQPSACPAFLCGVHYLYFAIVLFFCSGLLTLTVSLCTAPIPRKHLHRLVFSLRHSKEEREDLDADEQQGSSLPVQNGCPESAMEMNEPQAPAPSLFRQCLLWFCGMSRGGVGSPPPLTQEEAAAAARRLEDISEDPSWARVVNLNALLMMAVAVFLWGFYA
Kind of data set: Inhibition of methyl-α-D-glucopyranoside intake in CHO cells stably expressing human SGLT2. Format: cell-based. As to conditions: stated as equivalent to the value of Example 75 of Patent Document 1. From the text:
[Test for Confirming Effect of Inhibiting Activity of Human Na^+-Glucose Cotransporter (Human SGLT2)]
First, single-stranded cDNA was reversely transcripted from total RNA originating from human kidney (manufactured by BD Biosciences Clontech) using a Superscript II (manufactured by Invitrogen Corporation) and a random hexamer. Second, using the cDNA as a template, a DNA fragment encoding human SGLT2 (Wells R. G. et al., Am. J. Physiol., 1992, 263 (3) F459) was amplified by a PCR reaction using Pyrobest DNA polymerase (manufactured by Takara Bio Inc.) (A primer where a Hind III site and an EcoRI site were inserted into the 5′ side and the 3′ side of the DNA fragment, respectively, was used).
The amplified fragment was cloned into a pCR2.1-Topo vector using a Topo TA Cloning Kit (manufactured by Invitrogen Corporation), and the cloned vector was transfected into a competent cell of Escherichia coli JM109. Ampicillin-resistant clones were cultured in a LB medium containing ampicillin (100 mg/l). A plasmid was purified from the cultured Escherichia coli using the method of Hanahan (see Maniatis et al., “Molecular Cloning”). […]

Where [4] appears, read: 40° C., 75% RH, brown glass container, open, dark place, 2 months.
Setting [5] is: 40° C., 75% RH, brown glass container, open, dark place, 4 months.
The mark [6] stands for this setting: 40° C., 75% RH, brown glass container, open, dark place, 6 months.
The mark [7] stands for this setting: 40° C., 75% RH, silica gel/polyethylene bags (double) in a metal can, dark place, 2 months.
Where [8] appears, read: 40° C., 75% RH, silica gel/polyethylene bags (double) in a metal can, dark place, 4 months.
The mark [9] stands for this setting: 40° C., 75% RH, silica gel/polyethylene bags (double) in a metal can, dark place, 6 months.
Setting [10] is: at the start of storing, 0 month.

The structures appear in SMILES notation.

For `OC[C@H]1O[C@@H](c2cc(Cc3cc4cccccc-4c3)ccc2O)[C@H](O)[C@@H](O)[C@@H]1O` [Comparative Example 7, (1S)-1,5-anhydro-1-[5-(azulen-2-ylmethyl)-2-hydroxyphenyl]-D-glucitol anhydride crystal-1], in data set [1], the “Stability of the crystal form” value was “stable only at high temperature and cannot be isolated at room temperature”.
`[Li+].[O-]c1ccc(Cc2cc3cccccc-3c2)cc1[C@@H]1O[C@H](CO)[C@@H](O)[C@H](O)[C@H]1O` [Comparative Example 3, lithium 4-(azulen-2-ylmethyl)-2-β-D-glucopyranosylphenolate]: in data set [1], the “Stability of the crystal form” value is “change form due to dissociation of volatile components at a low temperature”.
The same measure, in the same setting: next, `OC[C@H]1O[C@@H](c2cc(Cc3cc4cccccc-4c3)ccc2O)[C@H](O)[C@@H](O)[C@@H]1O` [Comparative Example 5, (1S)-1,5-anhydro-1-[5-(azulen-2-ylmethyl)-2-hydroxyphenyl]-D-glucitol hydrate crystal-1]: “transformed into anhydride crystal-3 of azulene compound A”.
The same measure, in the same setting: for `[Na+].[O-]c1ccc(Cc2cc3cccccc-3c2)cc1[C@@H]1O[C@H](CO)[C@@H](O)[C@H](O)[C@H]1O` [Comparative Example 1, sodium 4-(azulen-2-ylmethyl)-2-β-D-glucopyranosylphenolate] the value was “change form due to dissociation of volatile components at a low temperature”; for `OC[C@H]1O[C@@H](c2cc(Cc3cc4cccccc-4c3)ccc2O)[C@H](O)[C@@H](O)[C@@H]1O` [Comparative Example 8, (1S)-1,5-anhydro-1-[5-(azulen-2-ylmethyl)-2-hydroxyphenyl]-D-glucitol anhydride crystal-2], “stable only at a high temperature and could not be isolated at room temperature”.
Consider `OC[C@H]1O[C@@H](c2cc(Cc3cc4cccccc-4c3)ccc2O)[C@H](O)[C@@H](O)[C@@H]1O` [Example 2, (2-hydroxyethyl)trimethylammonium 4-(azulen-2-ylmethyl)-2-β-D-glucopyranosylphenolate hydrate], for which, in data set [2] (setting [4]), the “Analogous compounds (%) (HPCL) Maximum of each compound” value (“Analogous compounds (%) (HPCL) Maximum” below) turned out to be 0.25%, the “Analogous compounds (%) (HPCL) Total amount” value was 0.58%, the “Quantitative analysis (%) (HPCL)” value was 99.2% and the “Water content (%)” value came to 3.78%. Moreover, in data set [2] (setting [5]), the “Analogous compounds (%) (HPCL) Maximum” value came to 0.24%, the “Analogous compounds (%) (HPCL) Total amount” value is 0.57%, the “Quantitative analysis (%) (HPCL)” value stood at 99.9% and the “Water content (%)” value is recorded as 3.59%. Besides, in data set [2] (setting [6]), the “Analogous compounds (%) (HPCL) Maximum” value is on record as 0.24%, the “Analogous compounds (%) (HPCL) Total amount” value was 0.43%, the “Quantitative analysis (%) (HPCL)” value is reported as 98.8% and the “Water content (%)” value stood at 3.61%.
As usually defined, the IC50 is the concentration that inhibits the measured activity by half. Take `OC[C@H]1O[C@@H](c2cc(Cc3cc4cccccc-4c3)ccc2O)[C@H](O)[C@@H](O)[C@@H]1O` [Example 1, (2-hydroxyethyl)trimethylammonium 4-(azulen-2-ylmethyl)-2-β-D-glucopyranosylphenolate]: the concentration for half-maximal inhibition (IC50) in data set [3] is about 8.9 nM. In addition, in data set [2] (setting [7]), the “Analogous compounds (%) (HPCL) Maximum” value is on record as 0.26%, the “Analogous compounds (%) (HPCL) Total amount” value came out at 0.66%, the “Quantitative analysis (%) (HPCL)” value is reported as 99.5% and the “Water content (%)” value was found to be 0.29%. In data set [2] (setting [8]), the “Analogous compounds (%) (HPCL) Maximum” value amounted to 0.26%, the “Analogous compounds (%) (HPCL) Total amount” value was found to be 0.62%, the “Quantitative analysis (%) (HPCL)” value is reported as 99.0% and the “Water content (%)” value is on record as 0.22%. Also, in data set [2] (setting [9]), the “Analogous compounds (%) (HPCL) Maximum” value stood at 0.27%, the “Analogous compounds (%) (HPCL) Total amount” value is 0.44%, the “Quantitative analysis (%) (HPCL)” value is 99.5% and the “Water content (%)” value was found to be 0.19%. The “Storage stability (conclusion from Table 3)” value in data set [2] (40° C., 75% RH, six months) is reported as “stable compounds”. For the same compound, in data set [2] (setting [10]), the “Analogous compounds (%) (HPCL) Maximum” value is recorded as 0.26%, the “Analogous compounds (%) (HPCL) Total amount” value is on record as 0.61%, the “Quantitative analysis (%) (HPCL)” value is 99.0% and the “Water content (%)” value is recorded as 0.39%.
As for `[K+].[O-]c1ccc(Cc2cc3cccccc-3c2)cc1[C@@H]1O[C@H](CO)[C@@H](O)[C@H](O)[C@H]1O` [Comparative Example 2, potassium 4-(azulen-2-ylmethyl)-2-β-D-glucopyranosylphenolate], the “Stability of the crystal form” value in data set [1] was “change form due to dissociation of volatile components at a low temperature”.
